Experiments:
[1] = human, in vivo, po, 480 mg
Source text: After completion of Part A, patients continued to Part B of the study. […] Treatment with paclitaxel continued for at least six cycles unless the patient experienced unacceptable paclitaxel-related toxicity or disease progression.
For patients with dose interruption in Cycle 2 before Week 2 Day 5, sample collection could be postponed to Week 2 Day 5 of the subsequent or later cycle, providing there was no dose interruption before Week 2 Day 5 of that cycle.

[2] = Adverse events (CTCAE v5.0), safety analysis set
Method: Adverse events were recorded continuously until 30 (± 7) days after discontinuation of study treatment and graded using the National Cancer Institute Common Terminology Criteria for Adverse Events v5.0.

[3] = cited from earlier work
[4] = related to capivasertib only per investigator, N = 16
[5] = oral administration, Western and Japanese patients

NC1(C(=O)N[C@@H](CCO)c2ccc(Cl)cc2)CCN(c2nc[nH]c3nccc2-3)CC1 [Capivasertib, capivasertib]
approximately 10 h: terminal elimination half-life (t½λz) [3, 5]
11 (68.8) n (%): Diarrhoea, any grade [2, 4]
1.0 h: tmax, median (range) [1]
5630 62.2 h×ng/mL: AUC(0–12), gMean gCV % [1]
7397 58.7 h×ng/mL: AUCinf, gMean gCV % [1]
5 (31.3) n (%): Hyponatraemia, any grade [2, 4] | Proteinuria, any grade [2, 4] | Rash (group term), Grade ≥3 [2, 4]
0 n (%): Anaemia, Grade ≥3 [2, 4] | Aspartate aminotransferase increased, Grade ≥3 [2, 4] | Blood albumin decreased, Grade ≥3 [2, 4] | Blood bilirubin increased, Grade ≥3 [2, 4] | Blood creatinine increased, Grade ≥3 [2, 4] | Blood triglycerides increased, Grade ≥3 [2, 4] | Blood triglycerides increased, any grade [2, 4] | Blood uric acid increased, Grade ≥3 [2, 4] | Diarrhoea, Grade ≥3 [2, 4] | Glycosylated haemoglobin increased, Grade ≥3 [2, 4] | Glycosylated haemoglobin increased, any grade [2, 4] | Hypoalbuminaemia, Grade ≥3 [2, 4] | Hypocalcaemia, Grade ≥3 [2, 4] | Hypokalaemia, Grade ≥3 [2, 4] | Hypomagnesaemia, Grade ≥3 [2, 4] | Hyponatraemia, Grade ≥3 [2, 4] | Hypophosphataemia, Grade ≥3 [2, 4] | Hypophosphataemia, any grade [2, 4] | Nausea, Grade ≥3 [2, 4] | Neutrophil count decreased, Grade ≥3 [2, 4] | Oedema peripheral, Grade ≥3 [2, 4] | Peripheral sensory neuropathy, Grade ≥3 [2, 4] | Peripheral sensory neuropathy, any grade [2, 4] | Platelet count decreased, Grade ≥3 [2, 4] | Proteinuria, Grade ≥3 [2, 4] | Pyrexia, Grade ≥3 [2, 4] | Stomatitis, Grade ≥3 [2, 4] | Vomiting, Grade ≥3 [2, 4] | Weight decreased, Grade ≥3 [2, 4] | Weight decreased, any grade [2, 4]
4 (25.0) n (%): Anaemia, any grade [2, 4] | Hypoalbuminaemia, any grade [2, 4] | Hypomagnesaemia, any grade [2, 4]
87.5%: patients with adverse events leading to dose interruptions of capivasertib ([2]; N = 16)
16 (100.0) n (%): Any adverse event, any grade [2, 4]
7244 58.8 h×ng/mL: AUC(0–48), gMean gCV % [1]
64.9 L/h: CL/F, gMean gCV % [1]
9 (56.3) n (%): Any adverse event, Grade ≥3 [2, 4]
1 to 2 h: median tmax [3, 5]
10 (62.5) n (%): Rash (group term), any grade [2, 4]
1 (6.3) n (%): Aspartate aminotransferase increased, any grade [2, 4] | Blood albumin decreased, any grade [2, 4] | Blood uric acid increased, any grade [2, 4] | Hypocalcaemia, any grade [2, 4] | Hypokalaemia, any grade [2, 4] | Neutrophil count decreased, any grade [2, 4] | Oedema peripheral, any grade [2, 4] | Platelet count decreased, any grade [2, 4] | Stomatitis, any grade [2, 4] | Vomiting, any grade [2, 4] | White blood cell count decreased, Grade ≥3 [2, 4]
2 (12.5) n (%): Blood bilirubin increased, any grade [2, 4] | Blood creatinine increased, any grade [2, 4] | Hyperglycaemia, Grade ≥3 [2, 4] | Nausea, any grade [2, 4] | White blood cell count decreased, any grade [2, 4]
15 (93.8) n (%): Hyperglycaemia, any grade [2, 4]
approximately dose-proportional: dose proportionality of plasma exposure (AUC over the dosing interval and Cmax) ([3]; doses ranging from 80 mg to 800 mg)
6 (37.5) n (%): Pyrexia, any grade [2, 4]
31.3%: patients with adverse events leading to dose reductions of capivasertib ([2]; N = 16)

CC(=O)O[C@H]1C(=O)[C@@]2(C)[C@H]([C@H](OC(=O)c3ccccc3)[C@]3(O)C[C@H](OC(=O)[C@H](O)[C@@H](NC(=O)c4ccccc4)c4ccccc4)C(C)=C1C3(C)C)[C@]1(OC(C)=O)CO[C@@H]1C[C@@H]2O [paclitaxel]
31.3%: patients with adverse events leading to dose reductions of paclitaxel ([2]; human, in vivo)
75.0%: patients with adverse events leading to dose interruptions of paclitaxel ([2]; human, in vivo)
